Results on one compound are retold here after US20200015478A1, “ANTIBACTERIAL COMPOSITION CONTAINING CARYOLAN-1-OL” (INDUSTRY-ACADEMIC COOPERATION FOUNDATION GYEONGSANG …, priority 2016, published 2020).

Structures are written as SMILES.

This experiment deals with Botrytis cinerea. Put plainly: Mycelium growth rate of Botrytis cinerea with synthesized caryolan-1-ol vapour from paper disc. The format is cell-based. To be noted: Botrytis cinerea on PDA, 10 μl acetone solution on paper disc, sealed, 27° C., 4 days, FIG. 6. As to the method:
Next, in order to verify the antibacterial activity of the synthesized caryolan-1-ol, PDA (Potato starch 4 g, dextrose 20 g, Agar 20 g with respect to 1 liter) medium was prepared so as to allow 60 mm Petri dishes to have 12 ml space. Botrytis cinerea was inoculated with a radius of 2 mm Based on the concentration at which caryolan-1-ol was completely gaseous, caryolan-1-ol was dissolved in acetone, and then the solution was treated to the paper disc placed on a lid at 10 μl each. After sealing, they were cultured at 27° C., and the growth rate of mycelium was measured for 4 days. The growth rate for the acetone treatment group was determined.

Regarding `CC12CCCC(O)(C1)C1CC(C)(C)C1CC2` (stereo not shown) [caryolan-1-ol], the “growth rate of mycelium relative to acetone treatment group” value is listed as “significantly inhibited the growth”.
